Data reported in BigSolDB 2.1.

CC[C@H]1OC(=O)[C@H](C)[C@@H](O[C@H]2C[C@@](C)(OC)[C@@H](O)[C@H](C)O2)[C@H](C)[C@@H](O[C@@H]2O[C@H](C)C[C@H](N(C)C)[C@H]2O)[C@](C)(O)C[C@@H](C)C(=O)[C@H](C)[C@@H](O)[C@]1(C)O.O.O
solubility (mole fraction)
Details | 293.2 K | 298 K | 303.15 K | 308 K | 313.1 K | 318 K | 323 K
in acetone | 0.00914 | 0.0131 | 0.0217 | 0.0293 | 0.0433 | 0.0542 | 0.0804
in chloroform | 0.00391 | 0.0054 | 0.00875 | 0.0134 | 0.0216 | 0.0313 | 0.0473
in ethanol | 0.0148 | 0.0192 | 0.0254 | 0.0338 | 0.046 | 0.062 | 0.081
in isopropanol | 0.003 | 0.00401 | 0.00556 | 0.00754 | 0.00995 | 0.0143 | 0.0194
in methanol | 0.0116 | 0.0143 | 0.0179 | 0.0215 | 0.0253 | 0.0305 | 0.0373
in water | 5.4e-05 | 4.7e-05 | 4.2e-05 | 4e-05 | 3.8e-05 | 3.5e-05 | 3.4e-05
